Experimental findings from patent publication US7560609B2, “Diabetic model” (priority 2001, dated 2009) are described below.

The assay in a line: Insulin sensitivity test. It is filed as in vivo, bank voles. As to conditions: 60 minutes following insulin. How it is done:
In the Group A bank voles (n=101), four female animals were found positive for glucosuria and blood glucose values of 215, 302, 313 and 340 mg/dl, respectively, In the remaining bank voles, the mean blood glucose±S.D. was normally distributed at 101±28 mg/dl. The body weight of the trapped voles from group A ranged from 8.5-28.4 g, the mean value±S.D. was 19±5 g. Occasional hyperglycemic and glucosuric bank voles may therefore be trapped in the wild. Whether these four animals had stress-induced hyperglycemia or overt diabetes remains to be established. […] As many as 18/22 (82%) had ketones and were polydipsic. […] We therefore next examined the pancreas histology in non-diabetic and diabetic bank voles to test if the classification of type 1 diabetes was supported by a loss of beta cells.

As to “Actrapid: insulin (Actrapid, Novo Nordisk, Copenhagen, Denmark) used in the insulin sensitivity test”, the “decrease in blood glucose” value by setting is: (eight animals with blood glucose <120 mg/dl) 40%; (four animals with blood glucose at 120-200 mg/dl) 60%; (four animals with blood glucose levels above 200 mg/dl) 30%.
